US20250268859A1, “OXAFURAMINE, (1R)-N-ETHYL-1-[(2R)-OXOLAN-2-YL]-2-[…], HYDROCHLORIDE AND DERIVATIVES THEREOF FOR TREATING ALZHEIMER'S DISEASE (AD), […] […], […] WITH LEWY BODIES (DLB), MIXED […], FRON[…] DEGENERATION (FTLD), AND PARKINSON'S DISEASE (PD)” (NLS Pharmaceutics AG, priority 2021, published 2025)

Legend:
M5 (h) = target: T1, M5 (h) (Homo sapiens, UniProt P08912); experiment: Radioligand binding panel, M5 (h) (antagonist radioligand); details: % inhibition of control specific binding
T1 construct: Eurofins (contract panel)
T1 sequence (P08912 1-532): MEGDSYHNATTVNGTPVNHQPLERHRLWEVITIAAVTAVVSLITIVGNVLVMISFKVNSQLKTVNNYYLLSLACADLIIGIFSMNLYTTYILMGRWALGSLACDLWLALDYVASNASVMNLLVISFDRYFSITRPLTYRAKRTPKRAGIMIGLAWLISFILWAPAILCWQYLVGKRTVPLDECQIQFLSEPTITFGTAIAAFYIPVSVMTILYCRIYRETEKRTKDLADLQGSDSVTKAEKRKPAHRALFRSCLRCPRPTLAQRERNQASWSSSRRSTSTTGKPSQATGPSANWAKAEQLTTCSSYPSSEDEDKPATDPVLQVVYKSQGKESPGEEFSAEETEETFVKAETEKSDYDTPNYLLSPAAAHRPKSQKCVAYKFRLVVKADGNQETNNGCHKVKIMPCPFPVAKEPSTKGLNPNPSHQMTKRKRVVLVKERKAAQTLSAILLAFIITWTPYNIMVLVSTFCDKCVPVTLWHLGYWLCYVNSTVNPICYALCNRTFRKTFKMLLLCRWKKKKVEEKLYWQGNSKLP
Experimental: (§1) Oxafuramine is tested at 10^−5 M, calculated as a % inhibition of control specific binding of a radioactively labeled ligand specific for each target.
This binding profile panel was broadly defined with roughly an equal number of selective, central and peripheral therapeutically relevant targets, including native animal tissues, radioligands and specific enzymes involved in cell cycle regulation in accordance with Eurofins Standard Operating Procedure (www.eurofins.fr).
For radioligand binding experiments, the half maximal inhibitory concentration (IC50) and the half maximal effective concentration (EC50) values were determined (via computer software) by nonlinear regression analysis of the competition curves using Hill equation curve fitting. The inhibition constants (Ki) were calculated using the Cheng-Prusoff equation (Ki=IC50/(1+(L/KD)), where L is the concentration of radioligand in the assay, and KD is the affinity of the radioligand for the receptor.
The results are expressed as a % control specific binding ([measured specific binding/control specific binding]×100) and as a % inhibition of control specific binding (100−[(measured specific binding/control specific binding)×100]) obtained in the presence of the test compounds. […]

Relaxin-3 (RXFP3) (h) = target: T2, Relaxin-3 (RXFP3) (h) (Homo sapiens, UniProt Q9NSD7); experiment: Relaxin-3 (RXFP3) (h) (agonist radioligand); type: binding
T2 sequence (Q9NSD7 1-469): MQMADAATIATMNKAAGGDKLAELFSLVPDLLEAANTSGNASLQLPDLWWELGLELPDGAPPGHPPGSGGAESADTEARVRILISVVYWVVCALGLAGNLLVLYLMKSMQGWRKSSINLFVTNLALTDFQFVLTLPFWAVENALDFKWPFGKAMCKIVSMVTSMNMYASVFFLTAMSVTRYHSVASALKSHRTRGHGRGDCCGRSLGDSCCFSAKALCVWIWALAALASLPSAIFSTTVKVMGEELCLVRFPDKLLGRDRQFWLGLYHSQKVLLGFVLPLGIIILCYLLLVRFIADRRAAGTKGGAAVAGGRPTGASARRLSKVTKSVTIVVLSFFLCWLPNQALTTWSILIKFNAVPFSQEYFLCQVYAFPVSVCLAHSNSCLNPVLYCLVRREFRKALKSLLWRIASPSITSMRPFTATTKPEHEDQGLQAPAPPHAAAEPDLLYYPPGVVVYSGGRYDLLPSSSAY
Experimental: as §1
The results are expressed as a % control specific binding ([measured specific binding/control specific binding]×100) and as a % inhibition of control specific binding (100−[(measured specific binding/control specific binding)×100]) obtained in the presence of the test compounds.
Results showing an inhibition (or stimulation) lower than 25% are not considered significant and mostly attributable to variability of the signal around the control level. […]
• 1. cAMP Hunter cell lines were expanded from freezer stocks according to standard procedures. • 2. Cells were seeded in a total volume of 20 μL into white walled, 384-well microplates and incubated at 37° C. for the appropriate time prior to testing. • 3. cAMP modulation was determined using the DiscoverX HitHunter cAMP XS+ assay. […]
[formula] • 6. For Gi positive allosteric mode assays, percentage modulation is calculated using the following formula: % Modulation=100%×(1−(mean RLU of test sample−mean RLU of MAX control) /(mean RLU of EC20 control−mean RLU of MAX control)). • 7. […]

For CCN[C@H](Cc1ccccc1)[C@H]1CCCO1 [Oxafuramine, (1R)—N-ethyl-1-[(2R)-oxolan-2-yl]-2-phenylethanamine], the inhibition at 10 µM (M5 (h); 10^−5 M) was ~25%, the “% Inhibition at 10^−5M, M5 (h) (antagonist radioligand)” value (M5 (h)) was 25.4% and the “% Inhibition at 10^−5M, Relaxin-3 (RXFP3) (h) (agonist radioligand)” value (Relaxin-3 (RXFP3) (h)) was “weakly target”. It also gave an inhibition at 10 µM (Relaxin-3 (RXFP3) (h); 10^−5 M) of 16.5%.
